Reference: patent US20250351832A1, “PHYTOCHEMICALS AS BIOPESTICIDES AND BIOSTIMULANTS” (KAY BEE BIO ORGANICS PVT. LTD., priority 2024, published 2025)
Read-outs that look alike come from different tables or passages of the source.

Legend:
chili seedlings = assay: Response of chili plants, greenhouse growth (Ex. 31); assay type: in vivo
Thrips [1] = assay: whole plant or invertebrate; settings: in Gossypium hirsutum, 48 h
Spodoptera litura [2] = settings: in vivo
Helicoverpa armigera [3] = system: Helicoverpa armigera
Aphid [4] = system: Aphid
Aphid [5] = assay: whole plant or invertebrate; settings: 48 h
Alternaria alternata [6] = assay: In vitro poisoned food technique against fungus (Ex. 20); assay type: cell-based
Spodoptera litura [7] = system: Spodoptera litura
Alternaria alternata [8] = assay: Alternaria leaf spot/blight on inoculated tomato plants (Ex. 28); assay type: in vivo
[9] = cited from earlier work; for Phytotonic Effect: Table 13, effect on plants, descriptive
Thrips [10] = system: Thrips
Spodoptera litura [11] = assay: whole plant or invertebrate; settings: 72 h
tomato seedlings = assay: Response of tomato plants, greenhouse growth (Ex. 30); assay type: in vivo; settings: tomato seedlings, dose 1 ml/gm/lit; for Plant Height 5th Day / Stem Girth 5th Day / CCI 5th Day: 5th day after application; for Plant Height 10th Day / Stem Girth 10th Day / CCI 10th Day: 10th day after application; for Plant Height % Increase over pre on 10th Day / Stem Girth % Increase over pre on 10th Day / CCI % Increase over pre on 10th Day / Root Length (cm) 10th Day / Root Length % Increase over control: 10th day; for Root Length % Increase over control: vs water control
Mealy Bug [12] = system: Mealy Bug
Mealy Bug [13] = system: Mealy Bug; remark: listed apart in the source
Mite [14] = settings: Dose 1 ml/gm/lit.
Mite [15] = settings: mite on okra plants, green house, dose 1 ml/gm/lit. spray
Aphid [16] = settings: Aphids on cotton plants, green house; dose 1 ml/gm/lit.; 10 insects/plant, 10 plants/treatment; 48 hrs
Thrips [17] = settings: Thrips on cotton leaves; dose 1 ml/gm/lit.; 10 insects/treatment; 48 hrs after application
Helicoverpa armigera [18] = settings: Helicoverpa armigera 3rd instar on chickpea plants, dose 1 ml/gm/lit. spray
[19] = chili seedlings, dose 1 ml/gm/lit, 5th day after application
[20] = chili seedlings, dose 1 ml/gm/lit, 10th day
[21] = chili seedlings, dose 1 ml/gm/lit, 10th day after application
[22] = chili seedlings, dose 1 ml/gm/lit, 10th day, vs water control
[23] = read-out: % Corrected Mortality at 48 Hrs.
[24] = read-out: % Mortality at 48 Hrs.
[25] = poisoned food technique, PDA medium, dose 1 ml/gm/lit., after seven days
[26] = Table 13, descriptive, no test described
[27] = read-out: % Corrected Mortality at 72 Hrs.
[28] = read-out: % Mortality at 72 Hrs.
[29] = poisoned food technique, PDA medium, dose 1 ml/gm/lit., after seven days, vs untreated control, read-out: % Inhibition of growth
[30] = tomato plants, Alternaria alternata, after 7 days, dose 1 ml/gm/lit
[31] = mealy bug on cotton plants, green house, dose 1 ml/gm/lit. spray, 48 hrs after application
[32] = thrips on cotton plants, greenhouse, dose 1 ml/gm/lit. spray, 48 hrs after application

## COc1cc(CNC(=O)CCCC/C=C/C(C)C)ccc1O [Capsaicin]
Chili seedlings; [19]
  CCI 5th Day: 12.21
  Plant Height (cm) 5th Day: 6.30 cm
Chili seedlings; [20]
  CCI % Increase over pre on 10th Day: 46.96%
  Plant Height % Increase over pre on 10th Day: 43.26%
  Root Lenght (cm) 10th Day: 2.99 cm
  Stem Girth % Increase over pre on 10th Day: 43.31%
Chili seedlings; [21]
  CCI 10th Day: 13.52
  Plant Height (cm) 10th Day: 6.59 cm
Chili seedlings; [22]
  Root Lenght % Increase over control: 9.09%
Thrips [1]; [23]
  mortality at 1 mL or g/L: 57.1%
Thrips [1]; [24]
  mortality at 1 mL or g/L: 62.5%
Spodoptera litura [2]
  % Corrected Mortality at 72 Hrs.: 44.74%
  % Mortality at 72 Hrs.: 47.50%
Helicoverpa armigera [3]; in vivo
  Total No. of dead insect at 72 Hrs.: 4.50
Aphid [4]; in vivo
  % Corrected Mortality at 48 Hrs.: 57.14%
Aphid [5]; [23]
  mortality at 1 mL or g/L: 55.9%
Aphid [5]; [24]
  mortality at 1 mL or g/L: 62.5%
Alternaria alternata [6]; […]
  inhibition of growth at 1 mL or g/L: 42.6%
Alternaria alternata [6]; [25]
  Mean colony Diameter (mm): 50.50 mm
Spodoptera litura [7]; in vivo
  Total No. of dead insect at 72 Hrs.: 4.25
Alternaria alternata [8]; in vivo
  % Disease reduction over Control: 51.24%
[9]; [26]
  Acaricidal Activity - Mode of action: Acts as a mite feeding
  Antifungal Activity - Mode of action: Inhibits the hyphae
  Antioxidant Activity - Mode of action: Showed antioxidant
  Bactericidal Activity - Mode of action: Inhibition of bacterial
  Insecticidal Activities - Mode of action: Fumigant and larvicidal
  Virucidal Activity - Mode of action: Inhibited viral replication
[9]
  Phytotonic Effect: Increase
Thrips [10]; in vivo
  % Corrected Mortality at 48 Hrs.: 55.56%
  % Mortality at 48 Hrs.: 60.00%
Spodoptera litura [11]; [27]
  mortality at 1 mL or g/L: 39.5%
Spodoptera litura [11]; [28]
  mortality at 1 mL or g/L: 42.5%
Tomato seedlings
  Plant Height 5th Day: 7.11 cm
  Stem Girth 5th Day: 1.92 mm
  Plant Height 10th Day: 7.86 cm
  Stem Girth 10th Day: 2.01 mm
  Plant Height % Increase over pre on 10th Day: 29.28%
  Stem Girth % Increase over pre on 10th Day: 58.60%
  CCI 5th Day: 14.66
  CCI % Increase over pre on 10th Day: 21.99%
  Root Length (cm) 10th Day: 3.95 cm
  CCI 10th Day: 15.42
  Root Length % Increase over control: 18.74%

## CC(C)c1ccc(C=O)cc1 [Cuminaldehyde]
Mealy Bug [12]; in vivo
  % Corrected Mortality at 48 Hrs.: 50.00%
Chili seedlings
  CCI Pre: 10.29
  Plant Height (cm) Pre: 4.27 cm
Chili seedlings; 120 h
  CCI 5th Day: 12.10
  Plant Height (cm) 5th Day: 5.77 cm
Chili seedlings; 240 h
  CCI 10th Day: 13.9
  Plant Height (cm) 10th Day: 6.40 cm
  Root Lenght % Increase over control: 13.94%
Chili seedlings; [20]
  CCI % Increase over pre on 10th Day: 35.08%
  Plant Height % Increase over pre on 10th Day: 50.00%
  Root Lenght (cm) 10th Day: 3.12 cm
  Stem Girth % Increase over pre on 10th Day: 40.41%
Mealy Bug [13]; in vivo
  % Corrected Mortality at 48 Hrs.: 50.00%
Thrips [1]; [23]
  mortality at 1 mL or g/L: 34.3%
Thrips [1]; [24]
  mortality at 1 mL or g/L: 42.5%
Spodoptera litura [2]
  % Corrected Mortality at 72 Hrs.: 52.63%
  % Mortality at 72 Hrs.: 55.00%
Helicoverpa armigera [3]; in vivo
  Total No. of dead insect at 72 Hrs.: 3.75
Aphid [4]; in vivo
  % Corrected Mortality at 48 Hrs.: 45.71%
  % Mortality at 48 Hrs.: 52.50%
Aphid [5]; [23]
  mortality at 1 mL or g/L: 47.1%
Aphid [5]; [24]
  mortality at 1 mL or g/L: 55%
Alternaria alternata [6]; [25]
  Mean colony Diameter (mm): 51.50 mm
Alternaria alternata [6]; [29]
  inhibition of growth at 1 mL or g/L: 41.5%
Spodoptera litura [7]; in vivo
  Total No. of dead insect at 72 Hrs.: 5.25
Alternaria alternata [8]; [30]
  % Disease reduction over Control: 52.89%
[9]; [26]
  Antifungal Activity - Mode of action: Mycelial growth inhibition
  Antioxidant Activity - Mode of action: Increase in reactive oxygen
  Bactericidal Activity - Mode of action: Great antimicrobial effects
  Insecticidal Activities - Mode of action: Acute Toxicity Effects
  Nematicidal Activity - Mode of action: Efficient hatching inhibitor
[9]
  Phytotonic Effect: Boost plant
Thrips [10]; in vivo
  % Corrected Mortality at 48 Hrs.: 33.33%
  % Mortality at 48 Hrs.: 40.00%
Spodoptera litura [11]; [27]
  mortality at 1 mL or g/L: 50%
Spodoptera litura [11]; [28]
  mortality at 1 mL or g/L: 52.5%
Tomato seedlings
  Plant Height 5th Day: 6.62 cm
  Stem Girth 5th Day: 1.77 mm
  Plant Height 10th Day: 7.33 cm
  Stem Girth 10th Day: 2.08 mm
  Plant Height % Increase over pre on 10th Day: 31.36%
  Stem Girth % Increase over pre on 10th Day: 64.12%
  CCI 5th Day: 13.64
  CCI % Increase over pre on 10th Day: 16.83%
  Root Length (cm) 10th Day: 3.81 cm
  CCI 10th Day: 14.65
  Root Length % Increase over control: 14.59%

## CC1CCC(C(C)C)C(O)C1 (stereo not drawn) [Menthol]
Mite [14]; 10 insects/treatment, 4 replications, okra leaves
  Total No. of dead insect at 48 Hrs.: 4.50
Mite [14]; 48 hrs
  % Corrected Mortality at 48 Hrs.: 40.54%
  % Mortality at 48 Hrs.: 45.00%
Mealy Bug [12]; [31]
  % Mortality at 48 Hrs.: 67.50%
  Total No. of dead insect at 48 Hrs.: 67.50
Mealy Bug [12]; mealy bug on cotton plants, green house, dose 1 ml/gm/lit. spray, 48 hrs, corrected for water control
  % Corrected Mortality at 48 Hrs.: 63.89%
Chili seedlings; [19]
  CCI 5th Day: 10.24
  Plant Height (cm) 5th Day: 6.48 cm
Chili seedlings; [20]
  CCI % Increase over pre on 10th Day: 44.78%
  Plant Height % Increase over pre on 10th Day: 45.21%
  Root Lenght (cm) 10th Day: 3.02 cm
  Stem Girth % Increase over pre on 10th Day: 42.37%
Chili seedlings; [21]
  CCI 10th Day: 13.87
  Plant Height (cm) 10th Day: 6.52 cm
Chili seedlings; [22]
  Root Lenght % Increase over control: 10.37%
Mealy Bug [13]; Mealy Bug on cotton leaves, dose 1 ml/gm/lit., 10 insects/treatment, 4 replications, 48 Hrs.
  Total No. of dead insect at 48 Hrs.: 6.50
Mealy Bug [13]; Mealy Bug on cotton leaves, dose 1 ml/gm/lit., 48 Hrs.
  % Mortality at 48 Hrs.: 65.00%
Mealy Bug [13]; Mealy Bug on cotton leaves, dose 1 ml/gm/lit., 48 Hrs., corrected for water control
  % Corrected Mortality at 48 Hrs.: 63.16%
Thrips [1]; [23]
  mortality at 1 mL or g/L: 71.4%
Thrips [1]; [24]
  mortality at 1 mL or g/L: 75%
Mite [15]; 48 hrs after application
  % Mortality at 48 Hrs.: 42.50%
  Total No. of dead insect at 48 Hrs.: 42.50
Mite [15]; 48 hrs, corrected for water control
  % Corrected Mortality at 48 Hrs.: 39.47%
Helicoverpa armigera [3]; Helicoverpa armigera on okra fruits, dose 1 ml/gm/lit., 10 insects/treatment, 4 replications, 72 Hrs.
  Total No. of dead insect at 72 Hrs.: 6.00
Helicoverpa armigera [3]; Helicoverpa armigera on okra fruits, dose 1 ml/gm/lit., 72 Hrs.
  % Mortality at 72 Hrs.: 60.00%
Helicoverpa armigera [3]; Helicoverpa armigera on okra fruits, dose 1 ml/gm/lit., 72 Hrs., corrected for water control
  % Corrected Mortality at 72 Hrs.: 60.00%
Aphid [4]; Dose 1 ml/gm/lit., 10 insects/treatment, 4 replications, cotton leaves
  Total No. of dead insect at 48 Hrs.: 7.00
Aphid [4]; Dose 1 ml/gm/lit., 48 hrs
  % Corrected Mortality at 48 Hrs.: 65.71%
  % Mortality at 48 Hrs.: 70.00%
Aphid [5]; [23]
  mortality at 1 mL or g/L: 70.6%
Aphid [5]; [24]
  mortality at 1 mL or g/L: 75%
Alternaria alternata [6]; [25]
  Mean colony Diameter (mm): 52.00 mm
Alternaria alternata [6]; [29]
  inhibition of growth at 1 mL or g/L: 40.9%
Spodoptera litura [7]; Spodoptera litura on castor leaves, dose 1 ml/gm/lit., 10 insects/treatment, 72 hrs after application
  Total No. of dead insect at 72 Hrs.: 2.75
Alternaria alternata [8]; [30]
  % Disease reduction over Control: 56.20%
Aphid [16]
  Total No. of dead insect at 48 Hrs.: 75.00
Thrips [17]
  Total No. of dead insect at 48 Hrs.: 7.50
Helicoverpa armigera [18]; 72 hrs after application
  % Mortality at 72 Hrs.: 55.00%
Helicoverpa armigera [18]; 72 hrs, corrected for water control
  % Corrected Mortality at 72 Hrs.: 55.00%
[9]; [26]
  Acaricidal Activity - Mode of action: Causes mortality & reduction
  Antifungal Activity - Mode of action: Inhibits fungal growth
  Antioxidant Activity - Mode of action: Possesses antioxidant
  Bactericidal Activity - Mode of action: Menthol showed
  Insecticidal Activities - Mode of action: Lower larval weight, reduced
Thrips [10]; [32]
  % Mortality at 48 Hrs.: 72.50%
  Total No. of dead insect at 48 Hrs.: 72.50
Thrips [10]; thrips on cotton plants, greenhouse, dose 1 ml/gm/lit. spray, 48 hrs, corrected for water control
  % Corrected Mortality at 48 Hrs.: 69.44%
Spodoptera litura [11]; [27]
  mortality at 1 mL or g/L: 23.7%
Spodoptera litura [11]; [28]
  mortality at 1 mL or g/L: 27.5%
Tomato seedlings
  Plant Height 5th Day: 6.78 cm
  Stem Girth 5th Day: 1.48 mm
  Plant Height 10th Day: 7.18 cm
  Stem Girth 10th Day: 2.19 mm
  Plant Height % Increase over pre on 10th Day: 27.30%
  Stem Girth % Increase over pre on 10th Day: 54.01%
  CCI 5th Day: 13.48
  CCI % Increase over pre on 10th Day: 27.44%
  Root Length (cm) 10th Day: 3.93 cm
  CCI 10th Day: 14.35
  Root Length % Increase over control: 18.18%
